Data reported in PubChem BioAssay AID220 (DTP/NCI, 2004).
“And” between values parts separate entries of the source, which are not always exact repeats. Equal values may be shown once. Records with an inconclusive call do not appear.

System: CD8F1 mice, subcutaneous mammary adenocarcinoma, T/C%
Experiment: NCI In Vivo Anticancer Drug Screen. Data for tumor model Mammary Adenocarcinoma CD8F1 (subcutaneous) in CD8F1
Details: higher = larger tumour
Outline: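 Compound-treated versus vehicle-treated mice with transplantable tumors; survival or tumor size compared as T/C.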

`NC(=O)c1ncn(C2OC(CO)C(O)C2O)n1` (configuration not stated) was tested, and the T/C (endpoint: mean tumor weight, dose: 12.5 mg/kg/injection, schedule: Q07DX006 (ip), vehicle: saline) was 120 % of control, the T/C (endpoint: mean tumor weight, dose: 25.0 mg/kg/injection, schedule: Q07DX006 (ip), vehicle: saline) was 288 % of control and the T/C (endpoint: mean tumor weight, dose: 50.0 mg/kg/injection, schedule: Q07DX006 (ip), vehicle: saline) was 60 % of control. For the same compound, the T/C (endpoint: mean tumor weight, dose: 100.0 mg/kg/injection, schedule: Q07DX006 (ip), vehicle: saline) was 35 % of control, the T/C (endpoint: mean tumor weight, dose: 200.0 mg/kg/injection, schedule: Q07DX006 (ip), vehicle: saline) was 41 % of control and the T/C (endpoint: mean tumor weight, dose: 400.0 mg/kg/injection, schedule: Q07DX006 (ip), vehicle: saline) was 27 % of control. The T/C (endpoint: median tumor weight (est.), dose: 12.5 mg/kg/injection, schedule: Q07DX005 (ip), vehicle: saline) was 118 % of control, the T/C (endpoint: median tumor weight (est.), dose: 25.0 mg/kg/injection, schedule: Q07DX005 (ip), vehicle: saline) was 165 % of control and the T/C (endpoint: median tumor weight (est.), dose: 50.0 mg/kg/injection, schedule: Q07DX005 (ip), vehicle: saline) was 97 % of control. For the same compound, the T/C (endpoint: median tumor weight (est.), dose: 100.0 mg/kg/injection, schedule: Q07DX005 (ip), vehicle: saline) was 102 % of control, the T/C (endpoint: median tumor weight (est.), dose: 200.0 mg/kg/injection, schedule: Q07DX005 (ip), vehicle: saline) was 46 % of control and the T/C (endpoint: median tumor weight (est.), dose: 400.0 mg/kg/injection, schedule: Q07DX005 (ip), vehicle: saline) was 48 % of control.

For `O=S(=O)(CCl)OCCCl`, the T/C (endpoint: median tumor weight change, dose: 62.5 mg/kg/injection, schedule: Q01DX001 (ip), vehicle: saline with Tween-80) was 56 % of control, the T/C (endpoint: median tumor weight change, dose: 125.0 mg/kg/injection, schedule: Q01DX001 (ip), vehicle: saline with Tween-80) was 60 % of control and the T/C (endpoint: median tumor weight change, dose: 250.0 mg/kg/injection, schedule: Q01DX001 (ip), vehicle: saline with Tween-80) was 69 % of control.

With `C#CC[N+]12CN3CN(CN(C3)C1)C2` the T/C (endpoint: mean tumor weight, dose: 12.5 mg/kg/injection, schedule: Q07DX007 (ip), vehicle: saline) was 48 % of control, the T/C (endpoint: mean tumor weight, dose: 25.0 mg/kg/injection, schedule: Q07DX007 (ip), vehicle: saline) was 70 % of control and the T/C (endpoint: mean tumor weight, dose: 50.0 mg/kg/injection, schedule: Q07DX007 (ip), vehicle: saline) was 81 % of control. The T/C (endpoint: mean tumor weight, dose: 100.0 mg/kg/injection, schedule: Q07DX007 (ip), vehicle: saline) was 150 % of control and the T/C (endpoint: mean tumor weight, dose: 200.0 mg/kg/injection, schedule: Q07DX007 (ip), vehicle: saline) was 97 % of control.

In the case of `COc1cccc2c1C(=O)c1c(O)c3c(c(O)c1C2=O)C[C@@](O)(C(=O)CO)C[C@@H]3OC1CC(N)C(O)C(C)O1` (some centres not stated), the T/C (endpoint: mean tumor weight, dose: 0.25 mg/kg/injection, schedule: Q01DX009 (ip), vehicle: saline) is reported as 38 % of control, the T/C (endpoint: mean tumor weight, dose: 0.5 mg/kg/injection, schedule: Q01DX009 (ip), vehicle: saline) is reported as 17 % of control and the T/C (endpoint: mean tumor weight, dose: 0.5 mg/kg/injection, schedule: Q07DX005 (ip), vehicle: saline) is reported as 85 % of control. The T/C (endpoint: mean tumor weight, dose: 0.5 mg/kg/injection, schedule: Q07DX006 (ip), vehicle: saline) was 45 % of control and 55 % of control and 66 % of control, the T/C (endpoint: mean tumor weight, dose: 0.75 mg/kg/injection, schedule: Q07DX006 (ip), vehicle: saline) was 46 % of control and the T/C (endpoint: mean tumor weight, dose: 1.0 mg/kg/injection, schedule: Q01DX009 (ip), vehicle: saline) was 2 % of control. The T/C (endpoint: mean tumor weight, dose: 1.0 mg/kg/injection, schedule: Q07DX005 (ip), vehicle: saline) was 89 % of control, the T/C (endpoint: mean tumor weight, dose: 1.5 mg/kg/injection, schedule: Q07DX006 (ip), vehicle: saline) was 42 % of control and the T/C (endpoint: mean tumor weight, dose: 2.0 mg/kg/injection, schedule: Q07DX005 (ip), vehicle: saline) was 40 % of control. For the same compound, the T/C (endpoint: mean tumor weight, dose: 2.5 mg/kg/injection, schedule: Q07DX006 (ip), vehicle: saline) was 6 % of control, the T/C (endpoint: mean tumor weight, dose: 3.0 mg/kg/injection, schedule: Q07DX006 (ip), vehicle: saline) was 3 % of control and the T/C (endpoint: mean tumor weight, dose: 4.0 mg/kg/injection, schedule: Q07DX006 (ip), vehicle: saline) was 1 % of control. The T/C (endpoint: median tumor weight (est.), dose: 0.25 mg/kg/injection, schedule: Q07DX005 (ip), vehicle: saline) was 208 % of control and 84 % of control, the T/C (endpoint: median tumor weight (est.), dose: 0.37 mg/kg/injection, schedule: Q07DX005 (ip), vehicle: water) was 84 % of control and the T/C (endpoint: median tumor weight (est.), dose: 0.75 mg/kg/injection, schedule: Q07DX005 (ip), vehicle: saline) was 62 % of control. The T/C (endpoint: median tumor weight (est.), dose: 0.75 mg/kg/injection, schedule: Q07DX005 (ip), vehicle: water) was 47 % of control, the T/C (endpoint: median tumor weight (est.), dose: 1.25 mg/kg/injection, schedule: Q07DX005 (ip), vehicle: saline) was 40 % of control and the T/C (endpoint: median tumor weight (est.), dose: 1.5 mg/kg/injection, schedule: Q07DX005 (ip), vehicle: saline) was 85 % of control. For the same compound, the T/C (endpoint: median tumor weight (est.), dose: 1.5 mg/kg/injection, schedule: Q07DX005 (ip), vehicle: water) was 81 % of control, the T/C (endpoint: median tumor weight (est.), dose: 1.8 mg/kg/injection, schedule: Q07DX005 (ip), vehicle: saline) was 77 % of control and the T/C (endpoint: median tumor weight (est.), dose: 2.5 mg/kg/injection, schedule: Q07DX005 (ip), vehicle: saline) was 14 % of control. For the same compound, the T/C (endpoint: median tumor weight (est.), dose: 2.7 mg/kg/injection, schedule: Q07DX005 (ip), vehicle: saline) was 51 % of control, the T/C (endpoint: median tumor weight (est.), dose: 3.0 mg/kg/injection, schedule: Q07DX005 (ip), vehicle: saline) was 29 % of control and the T/C (endpoint: median tumor weight (est.), dose: 4.4 mg/kg/injection, schedule: Q01DX001 (ip), vehicle: saline) was 37 % of control. For the same compound, the T/C (endpoint: median tumor weight (est.), dose: 4.4 mg/kg/injection, schedule: Q07DX004 (ip), vehicle: saline) was 11 % of control, the T/C (endpoint: median tumor weight (est.), dose: 6.0 mg/kg/injection, schedule: Q07DX005 (ip), vehicle: saline) was 30 % of control and the T/C (endpoint: median tumor weight (est.), dose: 6.7 mg/kg/injection, schedule: Q01DX001 (ip), vehicle: saline) was 28 % of control. The T/C (endpoint: median tumor weight (est.), dose: 6.7 mg/kg/injection, schedule: Q07DX004 (ip), vehicle: saline) was 5 % of control, the T/C (endpoint: median tumor weight (est.), dose: 8.0 mg/kg/injection, schedule: Q07DX005 (ip), vehicle: water) was 1 % of control and the T/C (endpoint: median tumor weight (est.), dose: 10.0 mg/kg/injection, schedule: Q01DX001 (ip), vehicle: saline) was 15 % of control. The T/C (endpoint: median tumor weight (est.), dose: 15.0 mg/kg/injection, schedule: Q01DX001 (ip), vehicle: saline) was 6 % of control, the T/C (endpoint: median tumor weight change, dose: 1.25 mg/kg/injection, schedule: Q01DX001 (ip), vehicle: water) was 115 % of control and the T/C (endpoint: median tumor weight change, dose: 2.5 mg/kg/injection, schedule: Q01DX001 (ip), vehicle: water) was 81 % of control. For the same compound, the T/C (endpoint: median tumor weight change, dose: 3.75 mg/kg/injection, schedule: Q01DX001 (ip), vehicle: saline) was 96 % of control, the T/C (endpoint: median tumor weight change, dose: 4.4 mg/kg/injection, schedule: Q01DX001 (ip), vehicle: water) was 27 % of control and the T/C (endpoint: median tumor weight change, dose: 5.0 mg/kg/injection, schedule: Q01DX001 (ip), vehicle: water) was 18 % of control. The T/C (endpoint: median tumor weight change, dose: 6.7 mg/kg/injection, schedule: Q01DX001 (ip), vehicle: water) was -5 % of control, the T/C (endpoint: median tumor weight change, dose: 7.5 mg/kg/injection, schedule: Q01DX001 (ip), vehicle: saline) was 82 % of control and the T/C (endpoint: median tumor weight change, dose: 15.0 mg/kg/injection, schedule: Q01DX001 (ip), vehicle: water) was -49 % of control.

In the case of `O=c1ccc2ccccc2o1`, the T/C (endpoint: median tumor weight change, dose: 125.0 mg/kg/injection, schedule: Q01DX001 (ip), vehicle: Klucel (hydroxypropylcellulose) (HPC)) is reported as 90 % of control.

With `CC(C)NCC(O)COc1ccc(O)c(O)c1` (configuration not stated) the T/C (endpoint: median tumor weight change, dose: 1.5 mg/kg/injection, schedule: Q01DX001 (ip), vehicle: saline) was 84 % of control, the T/C (endpoint: median tumor weight change, dose: 6.0 mg/kg/injection, schedule: Q01DX001 (ip), vehicle: saline) was 89 % of control and 105 % of control and the T/C (endpoint: median tumor weight change, dose: 12.0 mg/kg/injection, schedule: Q01DX001 (ip), vehicle: saline) was 72 % of control and 97 % of control. For the same compound, the T/C (endpoint: median tumor weight change, dose: 24.0 mg/kg/injection, schedule: Q01DX001 (ip), vehicle: saline) was 102 % of control and the T/C (endpoint: median tumor weight change, dose: 125.0 mg/kg/injection, schedule: Q01DX001 (ip), vehicle: saline) was 77 % of control and 96 % of control.

In the case of `O=C1CC2(C(=O)N1CN1CCOCC1)c1ccccc1-c1ccccc12`, the T/C (endpoint: median tumor weight change, dose: 250.0 mg/kg/injection, schedule: Q01DX001 (ip), vehicle: Klucel (hydroxypropylcellulose) (HPC)) is reported as 167 % of control, the T/C (endpoint: median tumor weight change, dose: 500.0 mg/kg/injection, schedule: Q01DX001 (ip), vehicle: Klucel (hydroxypropylcellulose) (HPC)) is reported as 102 % of control and the T/C (endpoint: median tumor weight change, dose: 1000.0 mg/kg/injection, schedule: Q01DX001 (ip), vehicle: Klucel (hydroxypropylcellulose) (HPC)) is reported as 40 % of control.

With `CN(C(=S)S(=O)(=O)C12CC3CC(CC(C3)C1)C2)c1ccccc1` the T/C (endpoint: median tumor weight (est.), dose: 6.25 mg/kg/injection, schedule: Q07DX005 (ip), vehicle: Klucel (hydroxypropylcellulose) (HPC)) was 66 % of control, the T/C (endpoint: median tumor weight (est.), dose: 12.5 mg/kg/injection, schedule: Q07DX005 (ip), vehicle: Klucel (hydroxypropylcellulose) (HPC)) was 84 % of control and the T/C (endpoint: median tumor weight (est.), dose: 25.0 mg/kg/injection, schedule: Q07DX005 (ip), vehicle: Klucel (hydroxypropylcellulose) (HPC)) was 81 % of control. The T/C (endpoint: median tumor weight (est.), dose: 50.0 mg/kg/injection, schedule: Q07DX005 (ip), vehicle: Klucel (hydroxypropylcellulose) (HPC)) was 77 % of control and the T/C (endpoint: median tumor weight (est.), dose: 100.0 mg/kg/injection, schedule: Q07DX005 (ip), vehicle: Klucel (hydroxypropylcellulose) (HPC)) was 61 % of control.

For `Clc1ccc(CN2COc3c(ccc4cccnc34)C2)cc1Cl`, the T/C (endpoint: median tumor weight (est.), dose: 25.0 mg/kg/injection, schedule: Q07DX005 (ip), vehicle: saline with Tween-80) was 113 % of control, the T/C (endpoint: median tumor weight (est.), dose: 50.0 mg/kg/injection, schedule: Q07DX005 (ip), vehicle: saline with Tween-80) was 65 % of control and the T/C (endpoint: median tumor weight (est.), dose: 200.0 mg/kg/injection, schedule: Q07DX005 (ip), vehicle: saline with Tween-80) was 66 % of control. For the same compound, the T/C (endpoint: median tumor weight (est.), dose: 400.0 mg/kg/injection, schedule: Q07DX005 (ip), vehicle: saline with Tween-80) was 96 % of control.
